Patent publication US20200369674A1, “ANTI-PAIN COMPOUND AND PREPARATION METHOD THEREOF” (LUNAN PHARMACEUTICAL GROUP CORPORATION, priority 2017, published 2020)

Assays:
CCI rats [1] = test: Mechanical stimulation paw withdrawal threshold (MWT) in CCI rats; assay type: in vivo, SD rats; conditions: for inhibition rate (absolute %): PTE % vs vehicle; for MWT: mean±SEM; for inhibition rate (relative %): relative to sham minus vehicle
Procedure: (§1) SD rats, body weight 180 g-220 g, half of them being male and the other half being female, provided by the Department of Laboratory Animals, Peking University. The rats were raised in a standard environment with temperature of 22±0.5° C. and relative humidity of 55±5%, 12 h/12 h light-dark cycle, and fed with standard feed.
(§2) Rat was anesthetized with pentobarbital sodium (60 mg/kg, i.p.), the right hind limb was surgically shaved, fixed in the prone position, a longitudinal incision was made along the middle of the right hind limb of the rat, the muscle was bluntly separated, the sciatic nerve was exposed, and the sciatic nerve bifurcate proximal end was loosely ligated with 4-0 silk suture for 4 times, with an interval of about 1 mm each time, in which the degree of tightness was suitable when it was observed that the right hind leg was slightly shaken. After ligation, the muscle and skin were sutured in sequence. For the sham-operated group, the sciatic nerve was only exposed, but not ligated. The success of modeling was determined by observing whether the hind limb of the rat's operation side was closed, slightly valgus and often vacated, and by measuring the mechanical stimulation paw withdrawal threshold and the thermal stimulation paw withdrawal latency of the rat.
(§3) Before surgery, the mechanical stimulation paw withdrawal thresholds and the thermal stimulation paw withdrawal latencies in the rats were determined, and the rats were grouped as: sham operation group (sham), vehicle group (double-distilled water, i.g.), DXL-A-22 group (2 mg/kg, i.g.), DXL-A-24 group (1 mg/kg, i.g.), and Gabapentin group (100 mg/kg, i.g.). All compounds and drugs were dissolved in double-distilled water, and given by intragastric administration at 1 mL/100 g. From the first day after surgery, the administration was carried out every day, and the mechanical stimulation paw withdrawal threshold and the thermal stimulation paw withdrawal latency were measured 2 hours after administration.
The mechanical stimulation paw withdrawal threshold (MWT) of rats was detected by von Frey electronic pain tester. The measurement was carried out on the days 5, 7 and 14 after operation. The rats were placed in a transparent plexiglass box (whose bottom was a wire mesh with a gap of 1 mm^2) to adapt to the environment for 30 min. After the rats had no exploration action, the von Frey electronic pain tester was used to stimulate the middle position of paw at the operation side of the rat, and the maximum force caused by rat paw withdrawal response (i.e., MWT) was recorded. The inhibition rate of the compound was calculated according to the following formula:
Absolute increase rate (i.e., PTE %): PTE %=(MWT of test group−MWT of vehicle group)/MWT of vehicle group×100 (1)
Relative increase rate: Inhibition rate %=(MWT of test group−MWT of vehicle group)/(MWT of Sham operation group−MWT of vehicle group)×100 (2)

CCI rats [2] = test: Thermal stimulation paw withdrawal latency (PWL) in CCI rats; assay type: in vivo, SD rats; conditions: for PWL: hot plate 50.5° C., cut-off 14s, mean±SEM
Procedure: as §1, §2, §3
The thermal stimulation paw withdrawal latency (PWL) was measured by a hot plate method. The measurement was carried out on the days 5, 7 and 14 after operation. The temperature of the hot plate was 50.5° C. Timing started when the rat was placed on the hot plate, and stopped when the shaking and foot licking responses of the rat appeared, and this time was the PWL of the rat. The hot plate cut-off time was 14s, and the percentage of analgesia (i.e., MPE %) was calculated according to formula (3):
MPE %=(PWL of test group−PWL of vehicle group)/(cut-off time−PWL of vehicle group)×100 (3)

ICR mice = test: Hot plate test; assay type: in vivo; conditions: Mus musculus, po; 1 mg/kg intragastric, latency 2.0 hours after administration, hot plate 55° C.; read-out: PTE %
Procedure: ICR mice, 18-22 g, half of them being male and the other half being female, provided by the Department of Laboratory Animals, Peking University (License No.: SCXK (Beijing) 2016-0010).
The temperature of hot plate was adjusted to 55° C., and the responses of mouse such as licking hind feet and jumping were used as the observation indexes. The time from the placement of mice on copper plate to the appearance of the above responses was defined as latency time. The latency time was measured for three times 30 minutes before administration, and the average value thereof was used as basic threshold, or baseline latency (BL). The animals with a latency time greater than 15 s and less than 5 s were removed, and the residual mice were randomly grouped, 8 animals per group.
Vehicle control group (double-distilled water) and groups for samples to be tested (the compounds and doses thereof were shown in Table 1) were set. All drugs were dissolved in […] before administration, and given by intragastric administration. The latency time was measured 2.0 hours after administration. Percentage of Pain Threshold Elevated Rate (PTE %) of compound on mice was calculated according to the following formula:
PTE %=(latency time of test group−latency time of vehicle control group)/latency time of vehicle control group×100

[3] = 2 mg/kg i.g. daily, Day 5 after operation, section 3.1
[4] = 2 mg/kg i.g. daily, Day 7 after operation, section 3.1
[5] = 2 mg/kg i.g. daily, Day 14 after operation, section 3.1
[6] = 2 mg/kg i.g. daily, Day 5 after operation, section 3.2
[7] = 2 mg/kg i.g. daily, Day 7 after operation, section 3.2
[8] = 2 mg/kg i.g. daily, Day 14 after operation, section 3.2
[9] = 1 mg/kg i.g. daily, Day 5 after operation, section 3.3
[10] = 1 mg/kg i.g. daily, Day 7 after operation, section 3.3
[11] = 1 mg/kg i.g. daily, Day 14 after operation, section 3.3
[12] = 1 mg/kg i.g. daily, Day 5 after operation, section 3.4
[13] = 1 mg/kg i.g. daily, Day 7 after operation, section 3.4
[14] = 1 mg/kg i.g. daily, Day 14 after operation, section 3.4

Br.Brc1ccc(N2CC[N+]3(CCCC3)CC2)cc1 [DXL-A-22, 8-(4-bromophenyl)-5,8-diazaspiro[4.5]decan-5-ium bromide]
inhibition rate (absolute %) (CCI rats [1]; [3]): 76.88% | MWT (CCI rats [1]; [3]): 19.28 ± 1.44**/ | inhibition rate (relative %) (CCI rats [1]; [3]): 31.01% | inhibition rate (absolute %) (CCI rats [1]; [4]): 116.83% | MWT (CCI rats [1]; [4]): 22.16 ± 0.79**/ | inhibition rate (relative %) (CCI rats [1]; [4]): 43.18% | inhibition rate (absolute %) (CCI rats [1]; [5]): 108.81% | MWT (CCI rats [1]; [5]): 22.05 ± 0.74**/ | inhibition rate (relative %) (CCI rats [1]; [5]): 41.26% | PWL (CCI rats [2]; [6]): 10.84 ± 0.32**/ | MPE(%) (CCI rats [2]; [6]): 51.61% | PWL (CCI rats [2]; [7]): 11.28 ± 0.64**/ | MPE(%) (CCI rats [2]; [7]): 58.91% | PWL (CCI rats [2]; [8]): 11.19 ± 0.52**/ | MPE(%) (CCI rats [2]; [8]): 55.61% | change in vivo at 1 mg/kg (ICR mice): 52.6%

FC(F)(F)c1ccc(N2CC[N+]3(CCCC3)CC2)cc1.[Br-] [DXL-A-24, 8-(4-(trifluoromethyl)phenyl)-5,8-diazaspiro[4.5]decan-5-ium bromide]
inhibition rate (absolute %) (CCI rats [1]; [9]): 75.78% | MWT (CCI rats [1]; [9]): 20.32 ± 1.09**/ | inhibition rate (relative %) (CCI rats [1]; [9]): 35.35% | inhibition rate (absolute %) (CCI rats [1]; [10]): 117.94% | MWT (CCI rats [1]; [10]): 22.84 ± 1.64**/ | inhibition rate (relative %) (CCI rats [1]; [10]): 47.89% | inhibition rate (absolute %) (CCI rats [1]; [11]): 75.09% | MWT (CCI rats [1]; [11]): 20.31 ± 1.57**/ | inhibition rate (relative %) (CCI rats [1]; [11]): 33.24% | PWL (CCI rats [2]; [12]): 11.29 ± 0.57**/ | MPE(%) (CCI rats [2]; [12]): 52.62% | PWL (CCI rats [2]; [13]): 12.35 ± 0.55**/ | MPE(%) (CCI rats [2]; [13]): 72.36% | PWL (CCI rats [2]; [14]): 13.26 ± 0.43**/ | MPE(%) (CCI rats [2]; [14]): 88.79% | change in vivo at 1 mg/kg (ICR mice): 48.6%
